Source: ChEMBL document CHEMBL4417638, “Novel cyclic peptides and uses thereof” (2018)
The source made the active and inactive calls. No cut-off for these calls is given here. Numbered stars: 1 amine (or outer) side, 2 acyl side, 3 side chain; on linkers, the order of the positions; unused ones are H or OH. Square brackets hold non-standard residues; d marks the D form. Peptide text beside a SMILES is read from it. azaTyr = O=C(N(Cc1ccc(O)cc1)N[*:1])[*:2]

Assays:
Platelet glycoprotein 4 = Platelet glycoprotein 4 (Rattus norvegicus, UniProt Q07969); assay: Displacement of [125]-Tyr-Bpa-Ala-Hexarelin from CD36 in Sprague-Dawley rat heart membranes incubated for 60 mins; format: cell membranes
RAW264.7 [1] = assay: Inhibition of R-FSL-1-induced CCL2 production in mouse RAW264.7 cells at 10 uM pre-incubated for 30 mins before R-FSL-1 stimulation for 4 hrs by ELISA; format: functional, cell-based
RAW264.7 [2] = assay: Inhibition of R-FSL-1-induced nitric oxide production in mouse RAW264.7 cells at 10 uM pre-incubated for 1 hr before R-FSL-1 stimulation by fluorescence based assay relative to control; format: functional
Mus musculus [3] = assay: Anti-atherosclerotic activity in atherogenic diet fed apoE-/- mouse assessed as reduction in aortic lesions at 300 nmol/kg, sc dosed daily for 8 weeks from 12 weeks of age relative to control; format: functional
RAW264.7 [4] = assay: Inhibition of R-FSL-1-induced TNFalpha production in mouse RAW264.7 cells at 10 uM pre-incubated for 30 mins before R-FSL-1 stimulation for 4 hrs by ELISA; format: functional, cell-based
Mus musculus [5] = assay: Protection against photoreceptor degeneration in mouse model of intense blue light-induced dry age related macular degeneration assessed as reduction in subretinal inflammation by measuring reduction in IL-1p-expressing immune cell infiltration in retina at 289 nmol/kg, sc starting one day after start of blue-light exposure for 7 consecutive days; format: functional, organism-based
BMDM [6] = assay: Inhibition of R-FSL-1-induced IL-1beta production in C57BL/6 mouse BMDM at 10 pM to 1 uM pre-incubated for 30 mins before R-FSL-1 stimulation for 4 hrs by ELISA; format: functional, cell-based
BMDM [7] = assay: Inhibition of R-FSL-1-induced TNFalpha production in C57BL/6 mouse BMDM at 10 pM to 1 uM pre-incubated for 30 mins before R-FSL-1 stimulation for 4 hrs by ELISA; format: functional, cell-based
Mus musculus [8] = assay: Protection against photoreceptor degeneration in mouse model of intense blue light-induced dry age related macular degeneration assessed as improvement of retinal function by measuring increase in a-wave and b-wave amplitudes at 289 nmol/kg, sc starting one day after start of blue-light exposure for 7 consecutive days by electroretinography analysis; format: functional, organism-based
Mus musculus [9] = assay: Protection against photoreceptor degeneration in mouse model of intense blue light-induced dry age related macular degeneration assessed as preservation of ONL thickness at 289 nmol/kg, sc starting one day after start of blue-light exposure for 7 consecutive days; format: functional, organism-based

Chain of Platelet glycoprotein 4 (Q07969 whole entry): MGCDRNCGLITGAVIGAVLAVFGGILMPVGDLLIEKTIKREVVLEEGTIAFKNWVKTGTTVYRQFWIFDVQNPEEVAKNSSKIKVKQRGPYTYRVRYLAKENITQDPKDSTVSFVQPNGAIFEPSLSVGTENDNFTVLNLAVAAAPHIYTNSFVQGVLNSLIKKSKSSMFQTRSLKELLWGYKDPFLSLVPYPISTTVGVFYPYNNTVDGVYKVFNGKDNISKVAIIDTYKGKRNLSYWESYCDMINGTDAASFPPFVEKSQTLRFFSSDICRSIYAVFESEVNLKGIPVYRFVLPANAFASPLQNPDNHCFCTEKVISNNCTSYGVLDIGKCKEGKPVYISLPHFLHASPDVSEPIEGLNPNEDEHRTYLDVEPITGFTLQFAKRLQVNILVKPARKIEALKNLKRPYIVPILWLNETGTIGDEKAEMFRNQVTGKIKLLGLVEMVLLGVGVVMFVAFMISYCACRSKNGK

Row | Compound | inhibition (RAW264.7 [1]) | inhibition (RAW264.7 [4]) | inhibition (RAW264.7 [2]) | also measured
1 | C=CCN1CC#CCN(NC(=O)CN)C(=O)N[C@H](Cc2c[nH]c3ccccc23)C(=O)N[C@@H](C)C(=O)N[C@@H](Cc2c[nH]c3ccccc23)C(=O)N[C@H](Cc2ccccc2)C(=O)N[C@H](C(N)=O)CCCC1 | – | – | – | IC50 (Platelet glycoprotein 4): 12900 nM
2 | C=CCN1CC#CCN(NC(=O)[C@H](C)NC(C)=O)C(=O)N[C@H](Cc2c[nH]c3ccccc23)C(=O)N[C@@H](C)C(=O)N[C@@H](Cc2c[nH]c3ccccc23)C(=O)N[C@H](Cc2ccccc2)C(=O)N[C@H](C(N)=O)CCCC1 | Active | Active | – | inhibition at 10 µM (RAW264.7 [2]): 80%; inhibition (Mus musculus [3]): Active
3 | C=CCN1CC#CC[C@H](NC(=O)[C@H](C)N)C(=O)N[C@H](Cc2c[nH]c3ccccc23)C(=O)N[C@@H](C)C(=O)N[C@@H](Cc2c[nH]c3ccccc23)C(=O)N[C@H](Cc2ccccc2)C(=O)N[C@H](C(N)=O)CCCC1 | – | – | Active | –
4 | C=CCN1CC#CC[C@H](NC(=O)[C@H](C)N)C(=O)N[C@@H](C)C(=O)N[C@@H](Cc2c[nH]c3ccccc23)C(=O)N[C@H](Cc2ccccc2)C(=O)N[C@H](C(N)=O)CCCC1 | – | – | Active | –
5 | CN1CC#CCN(NC(=O)[C@@H](Cc2c[nH]c3ccccc23)NC(=O)[C@@H](N)Cc2cnc[nH]2)C(=O)N[C@@H](Cc2c[nH]c3ccccc23)C(=O)N[C@H](Cc2ccccc2)C(=O)N[C@H](C(N)=O)CCCC1 | inactive | inactive | – | –
6 | C=CCN1CC#CCN(NC(=O)[C@@H](Cc2c[nH]c3ccccc23)NC(=O)[C@@H](N)Cc2cnc[nH]2)C(=O)N[C@@H](Cc2c[nH]c3ccccc23)C(=O)N[C@H](Cc2ccccc2)C(=O)N[C@H](C(N)=O)CCCC1 | Active | Active | Active | –
7 | C=CCN1CC#CCN(NC(=O)[C@H](C)N)C(=O)N[C@H](Cc2c[nH]c3ccccc23)C(=O)N[C@@H](C)C(=O)N[C@H](C(=O)N[C@H](Cc2ccccc2)C(=O)N[C@@H](CCCCN)C(N)=O)CCCC1 | – | – | Active | –
8 | C[C@H](NC(=O)[C@@H](Cc1c[nH]c2ccccc12)NC(=O)[C@@H](N)Cc1cnc[nH]1)C(=O)NN(Cc1ccc(O)cc1)C(=O)N[C@H](Cc1ccccc1)C(=O)N[C@@H](CCCCN)C(N)=O (H-H[dW]A[azaTyr][dF]K-NH2) | Active | Active | – | inhibition (Mus musculus [3]): Active
9 | C=CCN1CC#CCN(NC(=O)[C@H](C)N)C(=O)N[C@H](Cc2c[nH]c3ccccc23)C(=O)N[C@@H](C)C(=O)N[C@@H](Cc2c[nH]c3ccccc23)C(=O)N[C@H](Cc2ccccc2)C(=O)N[C@H](C(N)=O)CCCC1 | Active | Active | Active | Activity (Mus musculus [5]): Active; inhibition (BMDM [6]): Active; inhibition (BMDM [7]): Active; Activity (Mus musculus [8]): Active; Activity (Mus musculus [9]): Active
10 | CCCN1CC#CCN(NC(=O)CN)C(=O)N[C@H](Cc2c[nH]c3ccccc23)C(=O)N[C@@H](C)C(=O)N[C@@H](Cc2c[nH]c3ccccc23)C(=O)N[C@H](Cc2ccccc2)C(=O)N[C@H](C(N)=O)CCCC1 | – | – | Active | IC50 (Platelet glycoprotein 4): 1490 nM
11 | C[C@@H]1NC(=O)[C@@H](Cc2c[nH]c3ccccc23)NC(=O)N(NC(=O)CN)CC#CCN(CC2CC2)CCCC[C@@H](C(N)=O)NC(=O)[C@@H](Cc2ccccc2)NC(=O)[C@H](Cc2c[nH]c3ccccc23)NC1=O | – | – | Active | IC50 (Platelet glycoprotein 4): 980 nM
12 | C=CCN1CC#CCN(N)C(=O)N[C@H](Cc2c[nH]c3ccccc23)C(=O)N[C@@H](C)C(=O)N[C@@H](Cc2c[nH]c3ccccc23)C(=O)N[C@H](Cc2ccccc2)C(=O)N[C@H](C(N)=O)CCCC1 | inactive | inactive | – | inhibition at 10 µM (RAW264.7 [2]): 80%; inhibition (Mus musculus [3]): Active
13 | C=CCN1CC#CCN(NC(=O)[C@@H](C)N)C(=O)N[C@H](Cc2c[nH]c3ccccc23)C(=O)N[C@@H](C)C(=O)NN(Cc2ccc(OC)cc2)C(=O)N[C@H](Cc2ccccc2)C(=O)N[C@H](C(N)=O)CCCC1 | – | – | Active | –
14 | C=CCN1CC#CCN(NC(=O)[C@H](C)N)C(=O)N[C@@H](C)C(=O)N[C@@H](Cc2c[nH]c3ccccc23)C(=O)N[C@H](Cc2ccccc2)C(=O)N[C@H](C(N)=O)CCCC1 | Active | Active | Active | –
15 | C=CCN1CC#CCN(NC(C)=O)C(=O)N[C@H](Cc2c[nH]c3ccccc23)C(=O)N[C@@H](C)C(=O)N[C@@H](Cc2c[nH]c3ccccc23)C(=O)N[C@H](Cc2ccccc2)C(=O)N[C@H](C(N)=O)CCCC1 | Active | Active | – | inhibition at 10 µM (RAW264.7 [2]): 80%; inhibition (Mus musculus [3]): Active
